Experimental data: PubChem BioAssay (NCI)
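Briefly, cells in 96-well plates were exposed to five compound concentrations for 48 h, and endpoints were estimated by linear interpolation. Here, GI50 denotes the concentration required for 50% inhibition of growth. The concentration for full growth arrest is given as TGI.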

Key:
Assay in all cases: NCI-60 cell line screen, 48 h; in the data active means GI50 below about 0.43 µM; inactive means the rest
[1] = tested on: 786-0 renal
[2] = tested on: A498 renal
[3] = tested on: A549 NSCLC
[4] = tested on: ACHN renal
[5] = tested on: BT-549 breast
[6] = tested on: CCRF-CEM leukemia
[7] = tested on: COLO 205 colon
[8] = tested on: DU-145 prostate
[9] = tested on: EKVX NSCLC
[10] = tested on: HCC-2998 colon
[11] = tested on: HCT-116 colon
[12] = tested on: HCT-15 colon
[13] = tested on: HL-60(TB) leukemia
[14] = tested on: HOP-62 NSCLC
[15] = tested on: HT29 colon
[16] = tested on: IGROV1 ovarian
[17] = tested on: K-562 leukemia
[18] = tested on: KM12 colon
[19] = tested on: LOX IMVI melanoma
[20] = tested on: M14 melanoma
[21] = tested on: MALME-3M melanoma
[22] = tested on: MCF7 breast
[23] = tested on: MDA-MB-231 breast
[24] = tested on: MDA-MB-435
[25] = tested on: MOLT-4 leukemia
[26] = tested on: NCI-H226 lung
[27] = tested on: NCI-H23 lung
[28] = tested on: NCI-H460 lung
[29] = tested on: NCI-H522 lung
[30] = tested on: NCI/ADR-RES ovarian
[31] = tested on: OVCAR-3 ovarian
[32] = tested on: OVCAR-4 ovarian
[33] = tested on: OVCAR-5 ovarian
[34] = tested on: OVCAR-8 ovarian
[35] = tested on: PC-3 prostate
[36] = tested on: RPMI-8226 leukemia
[37] = tested on: RXF 393 renal
[38] = tested on: SF-268 CNS
[39] = tested on: SF-295 CNS
[40] = tested on: SF-539 CNS
[41] = tested on: SK-MEL-2 melanoma
[42] = tested on: SK-MEL-28 melanoma
[43] = tested on: SK-MEL-5 melanoma
[44] = tested on: SK-OV-3 ovarian
[45] = tested on: SN12C renal
[46] = tested on: SNB-19 CNS
[47] = tested on: SNB-75 CNS
[48] = tested on: SR leukemia
[49] = tested on: SW-620 colon
[50] = tested on: T-47D breast
[51] = tested on: TK-10 renal
[52] = tested on: U251 CNS
[53] = tested on: UACC-257 melanoma
[54] = tested on: UACC-62 melanoma
[55] = tested on: UO-31 renal
[56] = tested on: CAKI-1 renal
[57] = tested on: HOP-92 NSCLC
[58] = tested on: HS 578T breast

CC1(C)N=C(N)N=C(N)N1c1cc(Cl)ccc1Cl
inactive: GI50 [1] > 100 µM | GI50 [2] > 100 µM | GI50 [3] > 100 µM | GI50 [4] > 100 µM | GI50 [5] > 100 µM | GI50 [6] > 100 µM | GI50 [7] > 100 µM | GI50 [8] 28.3 µM | GI50 [9] > 100 µM | GI50 [10] > 100 µM | GI50 [11] 93.8 µM | GI50 [12] > 100 µM | GI50 [13] 74.7 µM | GI50 [14] > 100 µM | GI50 [15] 62.5 µM | GI50 [16] 27.6 µM | GI50 [17] 55.3 µM | GI50 [18] > 100 µM | GI50 [19] > 100 µM | GI50 [20] > 100 µM | GI50 [21] 59.1 µM | GI50 [22] > 100 µM | GI50 [23] > 100 µM | GI50 [24] > 100 µM | GI50 [25] > 100 µM | GI50 [26] > 100 µM | GI50 [27] > 100 µM | GI50 [28] 60.6 µM | GI50 [29] 46 µM | GI50 [30] > 100 µM | GI50 [31] 53.1 µM | GI50 [32] 86.8 µM | GI50 [33] > 100 µM | GI50 [34] > 100 µM | GI50 [35] > 100 µM | GI50 [36] > 100 µM | GI50 [37] > 100 µM | GI50 [38] > 100 µM | GI50 [39] > 100 µM | GI50 [40] > 100 µM | GI50 [41] > 100 µM | GI50 [42] > 100 µM | GI50 [43] > 100 µM | GI50 [44] > 100 µM | GI50 [45] > 100 µM | GI50 [46] > 100 µM | GI50 [47] > 100 µM | GI50 [48] > 100 µM | GI50 [49] 74.5 µM | GI50 [50] > 100 µM | GI50 [51] > 100 µM | GI50 [52] > 100 µM | GI50 [53] > 100 µM | GI50 [54] > 100 µM | GI50 [55] > 100 µM
> 100 µM: TGI [1] | TGI [2] | TGI [3] | TGI [4] | TGI [5] | TGI [6] | TGI [7] | TGI [8] | TGI [9] | TGI [10] | TGI [11] | TGI [12] | TGI [13] | TGI [14] | TGI [15] | TGI [17] | TGI [18] | TGI [19] | TGI [20] | TGI [21] | TGI [22] | TGI [23] | TGI [24] | TGI [25] | TGI [26] | TGI [27] | TGI [28] | TGI [29] | TGI [30] | TGI [31] | TGI [32] | TGI [33] | TGI [34] | TGI [35] | TGI [36] | TGI [37] | TGI [38] | TGI [39] | TGI [40] | TGI [41] | TGI [42] | TGI [43] | TGI [44] | TGI [45] | TGI [46] | TGI [47] | TGI [48] | TGI [49] | TGI [50] | TGI [51] | TGI [52] | TGI [53] | TGI [54] | TGI [55]
88.6 µM: TGI [16]

Cc1nc2cccc(NCc3ccc(C(=O)NO)cc3)c2c(=O)n1-c1ccccc1
3.41 µM: TGI [12]
10.5 µM: TGI [28]
38.9 µM: TGI [22]
3.75 µM: TGI [34]
4.47 µM: TGI [14]
5.17 µM: TGI [3]
8.28 µM: TGI [44]
3.33 µM: TGI [4]
11.9 µM: TGI [8]
6.14 µM: TGI [35]
5.46 µM: TGI [47]
3.97 µM: TGI [7]
4.56 µM: TGI [46]
6.79 µM: TGI [23]
5.99 µM: TGI [49]
> 100 µM: TGI [6] | TGI [58] | TGI [17] | TGI [25] | TGI [36] | TGI [48]
4.46 µM: TGI [57]
3.1 µM: TGI [43]
10.2 µM: TGI [13]
11.6 µM: TGI [15]
4.98 µM: TGI [53]
7.16 µM: TGI [30]
3.59 µM: TGI [18]
3.04 µM: TGI [52]
3.78 µM: TGI [1]
9.64 µM: TGI [32]
inactive: GI50 [1] 1.81 µM | GI50 [2] 1.7 µM | GI50 [3] 2.22 µM | GI50 [4] 1.62 µM | GI50 [5] 2.8 µM | GI50 [56] 1.67 µM | GI50 [6] 2.09 µM | GI50 [7] 1.87 µM | GI50 [8] 2.7 µM | GI50 [9] 2.08 µM | GI50 [10] 1.81 µM | GI50 [11] 1.35 µM | GI50 [12] 1.68 µM | GI50 [13] 2.87 µM | GI50 [14] 1.65 µM | GI50 [57] 1.93 µM | GI50 [58] 3.04 µM | GI50 [15] 2.81 µM | GI50 [17] 2.52 µM | GI50 [18] 1.8 µM | GI50 [19] 1.82 µM | GI50 [21] 1.48 µM | GI50 [22] 2.89 µM | GI50 [23] 2.5 µM | GI50 [24] 1.63 µM | GI50 [25] 2.28 µM | GI50 [26] 2.01 µM | GI50 [27] 1.63 µM | GI50 [28] 2.21 µM | GI50 [29] 1.29 µM | GI50 [30] 1.53 µM | GI50 [31] 2.16 µM | GI50 [32] 2.67 µM | GI50 [33] 2.13 µM | GI50 [34] 1.52 µM | GI50 [35] 1.9 µM | GI50 [36] 2.39 µM | GI50 [37] 1.41 µM | GI50 [39] 1.76 µM | GI50 [40] 1.89 µM | GI50 [41] 2.36 µM | GI50 [42] 1.97 µM | GI50 [43] 1.64 µM | GI50 [44] 2.71 µM | GI50 [45] 2.14 µM | GI50 [46] 1.92 µM | GI50 [47] 1.97 µM | GI50 [48] 1.43 µM | GI50 [49] 1.55 µM | GI50 [51] 1.76 µM | GI50 [52] 1.56 µM | GI50 [53] 2.11 µM | GI50 [55] 1.37 µM
5.38 µM: TGI [45]
5.12 µM: TGI [41]
6.07 µM: TGI [51]
6.75 µM: TGI [33]
4.9 µM: TGI [9] | TGI [31]
4.05 µM: TGI [40]
3.18 µM: TGI [27]
2.79 µM: TGI [37]
3.27 µM: TGI [10]
3.35 µM: TGI [19]
3.28 µM: TGI [2] | TGI [24]
3.62 µM: TGI [56]
2.61 µM: TGI [29]
8.1 µM: TGI [5]
6.08 µM: TGI [26]
3.15 µM: TGI [55]
4.76 µM: TGI [11]
3.54 µM: TGI [39]
3.92 µM: TGI [42]
3.26 µM: TGI [21]
